“Also recorded” adds a separate entry of the source.
How the values were obtained:
EBs = assay: In vitro 3-D embryo implantation model: attachment and outgrowth of EBs; type: cell-based, human; conditions: for ability of attached EBs to give rise to all lineages: lineage induction studies, in presence of the compound; for degeneration, attachment and outgrowth of EBs in implantation model: high dose, 48 hrs
Text: An in vitro 3-dimensional (3-D) model/system for embryo implantation employing EBs in place of embryos was developed. The EBs collected on different days were subjected to implantation/attachment on the artificial substratum/surface.
To make this artificial surface regular tissue culture dishes or organ culture dishes were coated with about 1 to 2 mm thick coating of 0.5 to 1% low melting or high melting agarose in DPBS. A few wells of about 1 to 2 mm diameter are created using sterile paper disks, preferable in the center of the dish, which were removed after the agarose solidifies. Alternatively a horizontal tube like structure can be created by casting the gel over a fine glass capillary, which can be withdrawn as the agarose solidifies. This cavity/depression or tube like structure of agarose is then coated with matrix proteins like matrigel, collagen, fibronectin, laminin, gelatin etc. The coated agarose dishes were also layered with mouse or human endometrial stromal cells obtained from primary cultures or cell lines. The EBs were placed carefully in the cavity created or flushed inside the tube using a bent pasture pipette. The cells were cultured in normal standard EB media.
The EBs adhere and outgrows spreading out as a monolayer of cells on the extracellular matrix. Some cells invaded the surrounding agarose by day 10. A failure to implant/outgrow within ten days on this matrix after exposure to the drug/molecule indicates an abnormality. However, some drugs/could also support/enhance the process of attachment and outgrowth of the EBs. These molecules were screened for several other possible applications, though these may not necessarily be safe for embryonic development.
Four day old EBs were cultured on agarose and fibronectin coated surfaces. […] However, as Y27632 supports and enhances outgrowth, the effect of this drug on the expression profiles of the lineage markers and other genes needs to be screened for evaluating effect on normal development.
The model consists of a culture plate which is coated with Low melting (0.5%) agarose, A well of various depths is created in the agarose by various means eg: putting sterile filter paper disks while casting the gel and removing them latter. The gel is then coated with extracellular matrix components like fibronectin, collagen, laminin, etc. Human endometrial stromal fibroblast cell line CRL4003 is grown on this extracellular matrix as a monolayer. The spherical embryoid bodies or embryo like entities at day 4.5 are injected or pipetted into these cavities. The attachment is allowed in a culture media regularly used for hESC culture, without FGF2 supplementation (FIG. 1).
3. Lineage induction studies: The embryoid bodies after attachment to the implantation site differentiates to all lineages.
Method: Spherical Cytic EBs were collected on day 4.5 and exposed to the continuous presence of Y27632 (various doses were used). […] The control cytic EB had however just attached with smaller area of outgrowth showing that this dose of Y27632 can help in initial implantation of embryo during pregnancy.

HUES 9 EB = assay: Expression profiles of lineage, pluripotency, epigenetic and imprinted genes in day 4.5 spherical EBs (HUES 9); type: cell-based, human; set-up: key: The sign ‘+’ indicates expression of the gene; the sign “−” indicates non-expression of the gene
Protocol: RT-PCR: Total RNA from cells was isolated using TRIZOL-LS Reagent (Invitrogen) as per the manufacturer's protocol. Complementary DNA was synthesized using the SuperScript III First-Strand Synthesis System (Invitrogen) as per the manufacturer's instructions. Polymerase Chain Reaction (PCR) was carried out using 1U Tag DNA Polymerase (Sigma) and MgCl2 to a final concentration of 1.5 mM in a total volume of 25 μl/reaction. β-actin and GAPDH were used as the housekeeping controls. PCR cycles consisted of an initial denaturation at 95° C. for 5 minutes followed by 35 amplification cycles of denaturation at 94° C. for 45 seconds, annealing for 45 seconds, and extension at 72° C. for 45 seconds and final extension at 72° C. for 10 minutes.
Examples of changes in the expression profiles/patterns of lineage markers, pluripotency markers, epigenetic markers and imprinted genes, in day 4.5 spherical cavitating/cytic embryoid bodies upon exposure to compounds like lipopolysaccharide (LPS), Rho kinase inhibitor (Y27632), Azacytidine (Aza), and biologicals like an Uvomorulin antibody (UVO) are given in the table nos. 9-12 below. The sign ‘+’ indicates expression of the gene and the sign “−” indicates non-expression of the gene.

[1] = HUES 9 EB DAY 4.5 RI (Y27632), control +
[2] = HUES 9 EB DAY 4.5 RI (Y27632), control −

**Q.** What does the source list for `C[C@@H](N)[C@H]1CC[C@H](C(=O)Nc2ccncc2)CC1` [Y27632]?
**A.** attachment and outgrowth of spheroid cavitating/cystic EB in implantation model (EBs; day 4.5 EBs, 20 μM, 48 hrs exposure): supportive/enhanced attachment; also recorded: attached and outgrown to a larger area; attachment of EBs (EBs; four day old EBs on agarose and fibronectin coated surfaces, 20 μM, control attached from 4th day): enhanced attachment from day 2 onwards; BRACHURY gene expression (HUES 9 EB; [1]): −; CDH1 gene expression (HUES 9 EB; [1]): +; CDX-2 gene expression (HUES 9 EB; [1]): −; DLK-1 gene expression (HUES 9 EB; [1]): −; HOXD11 gene expression (HUES 9 EB; [1]): +; HOXD12 gene expression (HUES 9 EB; [1]): −; SDHD gene expression (HUES 9 EB; [1]): −; TIMP3 gene expression (HUES 9 EB; [1]): −; hTERT gene expression (HUES 9 EB; [1]): −; p53 gene expression (HUES 9 EB; [1]): −; BMP-2 gene expression (HUES 9 EB; [2]): −; CD44 gene expression (HUES 9 EB; [2]): +; NOTCH gene expression (HUES 9 EB; [2]): +; OCT-4 gene expression (HUES 9 EB; [2]): +; PGR gene expression (HUES 9 EB; [2]): +; PTEN gene expression (HUES 9 EB; [2]): +; TGF β gene expression (HUES 9 EB; [2]): +; TP73 gene expression (HUES 9 EB; [2]): +; β-III TUBULIN gene expression (HUES 9 EB; [2]): +

**Q.** `OO` [H2O2] was tested. Which “ability of attached EBs to give rise to all lineages” value (EBs) did it give?
**A.** The value was “compromised”.

**Q.** `C[S+](C)[O-]` [DMSO] was tested. Which “degeneration, attachment and outgrowth of EBs in implantation model” value (EBs) did it give?
**A.** Its value is “degeneration of the EBs, and they failed to attach and outgrow”.

**Q.** And the “ability of attached EBs to give rise to all lineages” value (EBs)?
**A.** The value was “compromised”.

**Q.** Which “degeneration, attachment and outgrowth of EBs in implantation model” value (EBs) does the source give for `Nc1ncn([C@@H]2O[C@H](CO)[C@@H](O)[C@H]2O)c(=O)n1` [5-Azacytidine] here?
**A.** The value was “degeneration of the EBs, and they failed to attach and outgrow”.

**Q.** What about the BRACHURY gene expression (HUES 9 EB; HUES 9 EB D 4.5 AZA, control +) of the same molecule?
**A.** The BRACHURY gene expression was “−”.

**Q.** And the CDH1 gene expression (HUES 9 EB; HUES 9 EB D 4.5 AZA, control +)?
**A.** Its CDH1 gene expression is “−”.

**Q.** And the CDH13 gene expression (HUES 9 EB; HUES 9 EB D 4.5 AZA, control +)?
**A.** The CDH13 gene expression was “−”.

**Q.** And the CDX2 gene expression (HUES 9 EB; HUES 9 EB D 4.5 AZA, control +)?
**A.** The CDX2 gene expression was “−”.

**Q.** And the DLK1 gene expression (HUES 9 EB; HUES 9 EB D 4.5 AZA, control +)?
**A.** The DLK1 gene expression was “−”.

**Q.** And the HOXD12 gene expression (HUES 9 EB; HUES 9 EB D 4.5 AZA, control +)?
**A.** The HOXD12 gene expression was “−”.

**Q.** And the NANOG gene expression (HUES 9 EB; HUES 9 EB D 4.5 AZA, control +)?
**A.** Its NANOG gene expression is “−”.

**Q.** What about the SDHD gene expression (HUES 9 EB; HUES 9 EB D 4.5 AZA, control +) of the same molecule?
**A.** Its SDHD gene expression is “−”.

**Q.** What about the TIMP3 gene expression (HUES 9 EB; HUES 9 EB D 4.5 AZA, control +) of the same molecule?
**A.** The TIMP3 gene expression was “−”.

**Q.** And the TNFR gene expression (HUES 9 EB; HUES 9 EB D 4.5 AZA, control +)?
**A.** Its TNFR gene expression is “−”.

**Q.** What about the hTERT gene expression (HUES 9 EB; HUES 9 EB D 4.5 AZA, control +) of the same molecule?
**A.** The hTERT gene expression was “−”.

**Q.** And the p53 gene expression (HUES 9 EB; HUES 9 EB D 4.5 AZA, control +)?
**A.** Its p53 gene expression is “−”.

**Q.** What about the BMP-2 gene expression (HUES 9 EB; HUES 9 EB D 4.5 AZA, control −) of the same molecule?
**A.** Its BMP-2 gene expression is “−”.

**Q.** What about the CD44 gene expression (HUES 9 EB; HUES 9 EB D 4.5 AZA, control −) of the same molecule?
**A.** Its CD44 gene expression is “−”.

**Q.** What about the DPYS gene expression (HUES 9 EB; HUES 9 EB D 4.5 AZA, control −) of the same molecule?
**A.** Its DPYS gene expression is “+”.

**Q.** What about the H19 gene expression (HUES 9 EB; HUES 9 EB D 4.5 AZA, control −) of the same molecule?
**A.** The H19 gene expression was “−”.

**Q.** What about the OCT-4 gene expression (HUES 9 EB; HUES 9 EB D 4.5 AZA, control −) of the same molecule?
**A.** Its OCT-4 gene expression is “+”.

**Q.** What about the PTEN gene expression (HUES 9 EB; HUES 9 EB D 4.5 AZA, control −) of the same molecule?
**A.** The PTEN gene expression was “−”.

**Q.** And the “β-III TUBULIN gene expression” value (HUES 9 EB; HUES 9 EB D 4.5 AZA, control −)?
**A.** The value was “−”.
